Test results taken from patent US20120035169A1, “AEROSOL FORMULATION FOR THE INHALATION OF BETA-AGONISTS” (BOEHRINGER INGELHEIM INTERNATIONAL GMBH, priority 2004, published 2012).
Structures can show the parent of a compound that is named as a salt.

melting point [°C]	Structure (SMILES)
278 to 280	Cc1cc(CC(C)(C)NCC(O)c2cc(O)cc3c2OCC(=O)N3)ccc1F (centres unmarked) (as salt: hydrochloride)
278 to 280	Cc1cc(F)ccc1CC(C)(C)NCC(O)c1cc(O)cc2c1OCC(=O)N2 (centres unmarked) (as salt: hydrochloride)
279 to 280	CC(C)(Cc1ccc(F)cc1F)NCC(O)c1cc(O)cc2c1OCC(=O)N2 (centres unmarked) (as salt: hydrochloride)

More lines, now with the values behind:

Structure (SMILES)	melting point [°C]
Cc1cc(C)cc(CC(C)(C)NCC(O)c2cc(O)cc3c2OCC(=O)N3)c1 (centres unmarked) (as salt: hydrochloride)	235 to 238
CC(C)(Cc1ccc(OCCCC(=O)O)cc1)NCC(O)c1cc(O)cc2c1OCC(=O)N2 (centres unmarked) (as salt: salt) [Example 16, Acid addition salt of 4-(4-{2-[2-hydroxy-2-(6-hydroxy-3-oxo-3,4-dihydro-2H-benzo[1,4]oxazin-8-yl)-ethylamino]-2-methyl-propyl}-phenoxy)-butyric acid]	201 to 204
